Measured values taken from US9926354B2, “Amyloid precursor protein (APP) based Ã#-secretase inhibitor peptides, and methods of use” (UNIVERSITY OF SOUTH FLORIDA, priority 2014, dated 2018).
“And” between values parts separate entries of the source, which are not always exact repeats. Identical values can stand only once. No end group written: not given here.

Assays:
[1] = test system: 5XFAD mice; assay: WB of BACE1, ADAM10, ADAM17, Akt, phospho-Akt and MBP in brain homogenates of 5XFAD mice; type: in vivo, mouse; details: vs TAT and PBS
Method: 5XFAD Mice—Transgenic AD mice [5XFAD; B6SJL-Tg(APPSwF1Lon,PSEN1*M146L*L286V) 6799Vas/Mmjax] at 2.5 months of age were obtained from the Jackson Laboratory (Bar Harbor, Me., USA) and housed and maintained in the Animal Facility of College of Medicine at University of South Florida. The mice at 3.5 months of age were treated with TAT-APPsweBBP, TAT peptide (100 nM/kg in 100 μl PBS) or PBS (100 μl) intraperitioneally (i.p.) daily for eight consecutive weeks. The mice were subjected to behavioral testing after 8 week-treatment and euthanized for immunohistochemical, ELISA and WB analysis after completing behavioral tests. All experiments involving mice were in compliance with the U.S. Department of Health and Human Services Guide for the Care and Use of Laboratory Animals and in accordance with the guidelines of the USF Institutional Animal Care and Use Committee.
Western Blotting (WB) and Analysis—WB analysis was performed as previously described (Modi et al., 2013; Tung et al., 2002). Briefly, the proteins from the various cell-free, cell and brain lysates or homogenates were electrophoretically separated using 10% bicine/tris gel (8 M urea) for proteins less than 5 kD or 10% tricine/tris gels for larger proteins. […]
In addition to cognitive testing, neuronal APP proteolysis was also evaluated by ELISA and WB. […]

[2] = type: in vivo, mouse; details: biotin-labeled, 100 nM/kg i.p. daily for 5 days, 4 hours after last injection, 5XFAD mice
Method: In order to determine the BBB permeability of TAT-APPsweBBP, biotin-labeled TAT-APPsweBBP or APPsweBBP (100 nM/kg in 100 μl physiological saline) was intraperitoneally (i.p.) administered daily to 5XFAD mice at 2 months of age for 5 days (n=5, female). The mice were euthanized 4 hours after the last injection and then brain tissues were removed, sectioned and stained with anti-BACE1 and anti-biotin antibodies. Alexa Fluor® 594 donkey anti-rabbit IgG was used to detect the biotin signal and Alexa Fluor® 488 goat anti-mouse IgG was used to detect the BACE1 signal. All images were taken with an Olympus Fluoview FV1000 laser scanning confocal microscope. […] No noticeable differences in biotin distribution were observed between 5XFAD and WT control mice following either biotin-labeled TAT-APPsweBBP or APPsweBBP injection (data not shown).
The hypothesis that TAT-APPsweBBP would more effectively penetrate the BBB compared with APPsweBBP alone was initially tested. 5XFAD mice at 2 months of age (n=5, female) were treated with biotin-labeled TAT-APPsweBBP or APPsweBBP (100 nM/kg, i.p.) daily for 5 days and then euthanized 4 hours after the last injection. Brain tissues were removed, sectioned, and stained with anti-BACE1 and anti-biotin antibodies. […] This highlights the importance of the membrane fusion fragment of the HIV-1 Tat protein (TAT) for cerebral delivery of APPsweBBP.

[3] = molecular target: T1, BACE1 (Homo sapiens, UniProt P56817); assay: BACE1 activity assay (FRET, cell-free); type: biochemical; parameters: purchased Pan Vera Co., Madison, Wis., USA; details: for % of inhibition (mean ± SD) of BACE1: peptide final concentration 20 μM, 90 minutes, room temperature, 20 µM
T1 sequence (P56817 46-501): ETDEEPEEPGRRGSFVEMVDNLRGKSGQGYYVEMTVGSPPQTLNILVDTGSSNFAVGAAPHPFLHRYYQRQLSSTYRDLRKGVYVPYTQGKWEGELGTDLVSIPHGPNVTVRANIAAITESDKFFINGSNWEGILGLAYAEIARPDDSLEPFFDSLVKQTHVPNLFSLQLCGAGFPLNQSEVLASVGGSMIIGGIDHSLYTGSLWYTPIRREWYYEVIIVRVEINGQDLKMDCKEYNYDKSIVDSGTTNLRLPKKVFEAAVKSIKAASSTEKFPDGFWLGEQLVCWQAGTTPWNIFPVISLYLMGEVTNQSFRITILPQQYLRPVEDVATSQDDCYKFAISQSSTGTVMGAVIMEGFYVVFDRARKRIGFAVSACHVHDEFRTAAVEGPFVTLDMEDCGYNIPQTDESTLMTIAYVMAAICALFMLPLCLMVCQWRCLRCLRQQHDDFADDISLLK
Method: BACE1 Activity Assay—The BACE1 inhibiting activity of APP-based BACE1 site binding peptides were determined using a fluorescence resonance energy transfer (FRET) assay (Pan Vera Co., Madison, Wis., USA), which employs a recombinant baculovirus-expressed BACE1 and a specific substrate (Rh-[…]-quencher) that is based on the APPswe mutation. This specific peptide substrate becomes highly fluorescent upon enzymatic cleavage. A mixture of 10 μL of BACE1 (1.0 U/mL in 50 mM Tris, pH7.5, 10% glycerol), 10 μL of FRET-substrate, and 10 μL of the various APP-based BACE1 site binding peptides (final concentration 20 μM) were incubated for 90 minutes in the dark at room temperature. Then, 10 μL of BACE1 stop buffer (2.5 M sodium acetate) was added to the mixture. Fluorescence was read using a fluorometer, with excitation at 545 nm and emission at 585 nm.
As a required enzyme for the generation of neurotoxic Aβ from APP, BACE1 is well established as an important mediator of AD β-amyloid pathology. As such, it has become an important target for new disease modifying therapeutics. However, since BACE1 also has important physiological roles, abolishment of the enzyme or its activity may lead to deleterious side effects as evidenced by numerous failed clinical trials discussed previously. […] Since previous studies have established a close relationship between α-helix structure and peptide-protein (or protein-protein) interactions (Azzarito, 2013; Rao et al., 2013), several APP based peptides were synthesized that might serve as a preferable substrate for BACE1. Importantly, these peptides were free of the Aβ-containing segment and, thus, cannot be amyloidogenic. In theory, these could be used to “hijack” the BACE1 processing of endogenous APP and lead to a decrease in cerebral Aβ. These BACE1 substrates and controls were incubated with recombinant BACE1 and percent of inhibition of the enzyme was calculated. […] These findings indicate that the α-helical TAT fusion domain may help to promote selective APPsweBBP proteolysis by BACE1, yielding substrate competition against human wild-type APP.

[4] = molecular target: T1, BACE1; parameters: purchased Pan Vera Co., Madison, Wis., USA; details: phase II clinical trial suspended June 2013; cited from earlier work
[5] = test system: γ-secretase; details: Phase 3; cited from earlier work
[6] = test system: CHO cells over-expressing human Swedish mutant APP (CHO/APPswe); assay: Aβ and sAPPα production in cultured media of CHO/APPswe cells by ELISA; type: cell-based, Chinese hamster; details: 20 μg/mL, 24 hours
Method: (§1) Cell Culture—Chinese hamster ovary (CHO) cells engineered to express wild-type human APP (CHO/APPwt cells) or Swedish mutant human APP (CHO/APPswe cells) were kindly provided by Dr. Stefanie Hahn and Dr. Sascha Weggen (University of Heinrich Heine, Dusseldorf, Germany). As described previously (Obregon et al., 2012), these cells were cultured in Dulbecco's modified Eagle's medium (DMEM) with 10% fetal bovine serum (FBS), 1 mM sodium pyruvate, and 100 units/mL of penicillin and streptomycin.
(§2) To confirm the binding of APPsweBBP with BACE1, CHO/APPwt cells were plated in 8-well chambers (5×10^5/well), incubated with TAT-APPsweBBP-biotin or APPsweBBP-biotin at 20 μM for 30 minutes, fixed with 4% paraformaldehyde for 20 minutes, washed and permeabilized with 0.5% Triton X-100. Following application of blocking buffer, these cells were stained with mouse anti-BACE1 and rabbit anti-biotin antibodies overnight at 4° C. for immunocytochemistry analysis. In order to determine the inhibitory effects of TAT-APPsweBBP on BACE1-mediated APP β-cleavage and subsequent Aβ production, both CHO/APPwt and CHO/APPswe cells were plated in 24 well-plates (3×10^5/well) and treated with TAT-APPsweBBP at 0-20 μM for 24 hours. The cultured media were collected for Aβ analysis by enzyme-linked immunosorbent assay (ELISA) and sAPPα analysis by ELISA and Western blot (WB). Cell lysates were also prepared for analysis of APP amyloidogenic processing by WB.
(§3) ELISA—Mouse brains were homogenized in ice-cold lysis buffer for 30 seconds using a Minilys tissue homogenizer (Bertin Technologies, Montigny-le-Bretonneux, France) set at high speed, allowed to stand for 15 minutes at 4° C., and centrifuged at 15,000 rpm for 30 minutes. Soluble Aβ1-40/42 species and sAPPα were directly detected in cultured cell media or brain homogenates using the Aβ1-40/42 (Invitrogen) and sAPPα ELISA kits (IBL-America, Minneapolis, Minn., USA).
(§4) To further examine the ability of the Swedish mutant APP BACE1 binding peptide/Tat fusion peptides to decrease Aβ production, CHO cells overexpressing either human wild-type APP (CHO/APPwt cells) or Swedish mutant APP (hereinafter referred to as “CHO/APPswe cells”) are treated with a variety of APP-based BACE1 inhibitor peptides, as shown in Table 1 and Table 2. Aβ production is determined using ELISA.

[7] = test system: CHO/APPwt cells; assay: Aβ production in CHO/APPwt cells by ELISA (Example 1, 4 hours); type: cell-based, Chinese hamster; details: 20 μg/mL
Method: To examine the effects of various Swedish Tat fusion peptides on Aβ production, human wild-type amyloid precursor protein (APP) is overexpressed in Chinese hamster ovary cells (hereinafter referred to as CHO/APPwt cells), and the cells are treated with either PBS control (Phosphate buffered saline); Swedish peptide-1 (SwePep-1), […] (also referred herein as “APPsweBBP1”) (SEQ ID NO: 5); Swedish peptide-2 (SwePep-2) (also referred herein as “APPsweBBP”), […] (SEQ ID NO: 1); Swedish Tat fusion peptide-1 (SweTatPep-1), […] (also referred herein as “APPsweBBP/TTD1”) (SEQ ID NO: 6); or Swedish Tat fusion peptide-2 (SweTatPep-2) (also referred herein as “APPsweBBP/TTD2” and “TAT-APPsweBBP”), […] (SEQ ID NO: 3). APPsweBBP is a truncated fragment of APPswe spanning 12 amino acid residues (Glu665-Arg676). TAT, an 11-amino acid-residue protein-transduction domain derived from the HIV-1 transactivator of transcription protein, was conjugated at the C-terminus of APPsweBBP and biotin was conjugated at the N-terminus.
Following treatment, Aβ production is determined utilizing ELISA and the results illustrated in FIG. 1A. SweTatPep-2, SwePep-2, SwePep-1 and SweTatPep-1 each reduce Aβ40,42 by 63-65%, 30-33%, 31-34% and 37-38%, respectively.

[8] = test system: CHO cells over-expressing human wild-type APP (CHO/APPwt); assay: Aβ and sAPPα production in cultured media of CHO/APPwt cells by ELISA (24 hours); type: cell-based, Chinese hamster; details: 20 μg/mL
Method: as §1
as §2, with “In order to determine the inhibitory effects of TAT-APPsweBBP on BACE1-mediated APP β-cleavage and subsequent Aβ production, both CHO/APPwt and CHO/APPswe cells were plated in 24 well-plates (3×10^5/well) and treated with TAT-APPsweBBP at 0-20 μM for 24 hours.” left out
as §3, §4

YGRKKRRQRRREISEVNLDAEFR [APPsweBBP/TTD2]
total Akt, phosphorylated Akt and MBP expression levels in brain homogenates [1]: did not differ
BBB penetration [2]: highly penetrated the BBB
% of inhibition (mean ± SD) of BACE1 ([3]; listed as TAT-APPswe^bBBP): 93.23 ± 2.73%
inhibition at 20 µM ([3]; read-out: % of inhibition (mean ± SD) of BACE1, peptide final concentration 20 μM, 90 minutes, room temperature): > 90%

NC1=N[C@@]2(c3cc(NC(=O)c4ccc(F)cn4)ccc3F)COC[C@H]2CS1 [LY2886721]
reason for trial suspension [4]: possible liver toxicity

CC(C)[C@H](O)C(=O)N[C@@H](C)C(=O)N[C@@H]1C(=O)N(C)CCc2ccccc21 [semagacestat]
activities of daily living and cognition in treated patients [5]: worsened

EISEVNLDAEFR (listed as Homo sapiens) [APPsweBBP2]
Secreted Aβ40 (ng/mg; mean ± SD) [6]: 41.41 ± 8.43 ng/mg
Secreted Aβ42 (ng/mg; mean ± SD) [6]: 6.54 ± 0.85 ng/mg
Secreted sAPPα (ng/mg; mean ± SD) [6]: 253.56 ± 20.11 ng/mg
reduction of Aβ40,42 [7]: 30-33%
Secreted Aβ40 (ng/mg; mean ± SD) [8]: 7.01 ± 1.02 ng/mg
Secreted Aβ42 (ng/mg; mean ± SD) [8]: 0.73 ± 0.034 ng/mg
Secreted sAPPα (ng/mg; mean ± SD) [8]: 5201.64 ± 119.63 ng/mg
% of inhibition (mean ± SD) of BACE1 [3]: ~40% and 38.43%
